Laboratory results as given in patent US9511070B2, “Heterocyclyl carboxamides for treating viral diseases” (NOVADRUG, LLC, priority 2012, dated 2016).

test system: JFH-1 HCV; conditions: relative to mock-treated HCV infected control; doses in μM
Text: In vitro assay for anti-HCV efficacy. HCV studies typically involve infected patients and chimpanzees. However, recently, a robust HCV infection system was developed with cells derived from the Huh-7 human hepatoma cell line. It is based on the unique JFH-1 HCV consensus cDNA derived from an HCV patient. Using reverse genetics, the infectious virus can be rescued from this HCV clone. The recovered viable JFH virus can be passaged serially in Huh-7 cells. For this reason, this system is amenable for evaluating the activity of test compound for their anti-HCV efficacy.
Briefly, 6×10^3 Huh7-1 cells are incubated overnight in each well of collagen-coated BioCoat 96-well plates (BD Biosciences, Bedford, Mass.) in 0.2 ml 10% medium composed of Dulbecco's modified Eagle's medium supplemented with 10% fetal bovine serum. Subsequently, at 2 day intervals, the cultures are replenished with fresh 0.2 ml 10% medium. After the cultures become confluent, they continue to be replenished at 2 day intervals with fresh 0.2 ml 10% medium that also includes 1% dimethyl sulfoxide (DMSO). After 20 days of these replenishments, the Huh7-1 cultures are incubated with fresh 1% medium (same as 10% medium except that the serum level is 1%) containing HCV at a multiplicity of infection (MOI) of 0.05 focus forming units (ffu)/cell. The HCV (JFH-lwt Huh7) stock titer is 1.5×10^5 ffu/mL. The next day (day 1 post-infection) and 2 days later (day 3 post-infection) the media are replenished with fresh 1% medium containing the test compounds dissolved in DMSO. On the 5th day of treatment with the compounds, cell lysates are collected for RNA isolation and Real Time-quantitative Reverse Transcription Polymerase Chain Reaction (RT-qPCR) and culture media are collected for cytotoxicity analysis.
Total RNA is isolated from cells by the guanidine thiocyanate method using standard protocols. One μg RNA is used for cDNA synthesis using TaqMan reverse transcription reagents (Applied Biosystems, Foster City, Calif.) followed by real-time PCR using an Applied Biosystems 7300 real-time thermocycler. Thermal cycling consists of initial denaturation of 10 min at 95° C. followed by 40 cycles of denaturation (15 s at 95° C.) and annealing/extension (1 m at 60° C.). HCV and human glyceraldehyde-3-phosphate dehydrogenase (GAPDH) RNA levels are determined relative to a standard curve of serial dilutions of plasmid containing JFH-1 HCV or GAPDH cDNA. The PCR primers used to detect GAPDH and HCV are: GAPDH (NMX002046) 5′-[…]-3′(SEQ ID NO: 16) (sense) and 5′-[…]-3′(SEQ ID NO: 17) (anti-sense) JFH-1 HCV (AB047639) 5′-[…]-3′(SEQ ID NO: 18) (sense) and 5′-[…]-3′(SEQ ID NO: 19) (anti-sense).

Compound	intracellular HCV RNA levels (FIGS. 1A, 1B, 1C)
COc1cccc(-c2ccccc2NC(=O)C2CCN(Cc3cccc4cccnc34)CC2)c1 [Example 22]	dose dependent decrease in HCV RNA levels
COc1cccc(-c2ccccc2NC(=O)C2CCN(Cc3cc(C)c(O)c(C)c3)CC2)c1 [Example 24]	dose dependent decrease in HCV RNA levels
O=C(Nc1ccc(Oc2ccccc2F)cc1)C1CCN(Cc2cccc3c2OCO3)CC1 [Example 28]	dose dependent decrease in HCV RNA levels

same assay, conditions: viral titer at 5 μM or 15 μM compared to untreated control

Compound	HCV Antiviral Activity
COc1cc(CN2CCC(C(=O)Nc3ccc(-c4cccc(C)c4)cc3)CC2)ccc1O [Example 17]	+ (“+” corresponds to ≦60% viral titer at 15 μM)
COc1ccc(CN2CCC(C(=O)Nc3ccc(Oc4ccccc4F)cc3)CC2)c(O)c1 [Example 21]	+++ (“+++” corresponds to ≦30% viral titer at 5 μM)
COc1cccc(-c2ccccc2NC(=O)C2CCN(Cc3cccc4cccnc34)CC2)c1 [Example 22]	+++ (“+++” corresponds to ≦30% viral titer at 5 μM)
COc1ccccc1CN1CCC(C(=O)Nc2ccc(-c3nc4ccccc4[nH]3)cc2)CC1 [Example 23]	+++ (“+++” corresponds to ≦30% viral titer at 5 μM)
COc1cccc(-c2ccccc2NC(=O)C2CCN(Cc3cc(C)c(O)c(C)c3)CC2)c1 [Example 24]	+++ (“+++” corresponds to ≦30% viral titer at 5 μM)
COc1cccc(-c2ccccc2NC(=O)C2CCN(Cc3ccccc3OC)CC2)c1 [Example 25]	++ (“++” corresponds to ≦60% viral titer at 5 μM)
O=C(Nc1cccc(-c2cccc(F)c2)c1)C1CCN(Cc2ccc(O)cc2)CC1 [Example 26]	++ (“++” corresponds to ≦60% viral titer at 5 μM)
CCCCc1nc(CN2CCC(C(=O)Nc3cccc(-c4cccc(F)c4)c3)CC2)c[nH]1 [Example 27]	++ (“++” corresponds to ≦60% viral titer at 5 μM)
O=C(Nc1ccc(Oc2ccccc2F)cc1)C1CCN(Cc2cccc3c2OCO3)CC1 [Example 28]	++ (“++” corresponds to ≦60% viral titer at 5 μM)
O=C(Nc1cccc(-c2cccc(F)c2)c1)C1CCN(Cc2cccc(O)c2)CC1 [Example 29]	+ (“+” corresponds to ≦60% viral titer at 15 μM)
COc1cccc(O)c1CN1CCC(C(=O)Nc2cccc(-c3cccc(F)c3)c2)CC1 [Example 30]	+ (“+” corresponds to ≦60% viral titer at 15 μM)
O=C(Nc1cccc(-c2cccc(Cl)c2)c1)C1CCN(Cc2ccc(O)cc2)CC1 [Example 31]	+ (“+” corresponds to ≦60% viral titer at 15 μM)
COc1cccc(-c2ccccc2NC(=O)C2CCN(Cc3ccc(OC)c(C)c3)CC2)c1 [Example 32]	+ (“+” corresponds to ≦60% viral titer at 15 μM)
COc1cccc(CN2CCC(C(=O)Nc3ccccc3-c3cccc(OC)c3)CC2)c1 [Example 33]	+ (“+” corresponds to ≦60% viral titer at 15 μM)
COc1cccc(-c2ccccc2NC(=O)C2CCN(Cc3ccc(F)cc3OC)CC2)c1 [Example 34]	+ (“+” corresponds to ≦60% viral titer at 15 μM)
O=C(Nc1cccc(-c2cscn2)c1)C1CCN(Cc2cccc(-c3ccco3)c2)CC1 [Example 35]	+ (“+” corresponds to ≦60% viral titer at 15 μM)
COc1cccc(-c2ccccc2NC(=O)C2CCN(CCC(C)c3ccccc3)CC2)c1 (stereo not shown) [Example 36]	+ (“+” corresponds to ≦60% viral titer at 15 μM)
CC(C)n1cc(CN2CCC(C(=O)Nc3cccc(-c4cc5ccccc5[nH]4)c3)CC2)cn1 [Example 38]	+ (“+” corresponds to ≦60% viral titer at 15 μM)
COc1cccc(-c2ccccc2NC(=O)C2CCN(CC(C)(C)C)CC2)c1 [Example 39]	+ (“+” corresponds to ≦60% viral titer at 15 μM)
O=C(Nc1cccc(-c2ccco2)c1)C1CCN(Cc2cccc3cccnc23)CC1 [Example 40]	+ (“+” corresponds to ≦60% viral titer at 15 μM)
Cc1nnc(-c2cccc(NC(=O)C3CCN(C(=O)c4ccco4)CC3)c2)s1 [Example 41]	+ (“+” corresponds to ≦60% viral titer at 15 μM)
COc1cc(CN2CCC(C(=O)Nc3cccc(-c4cccc(Cl)c4)c3)CC2)ccc1O [Example 42]	+ (“+” corresponds to ≦60% viral titer at 15 μM)
O=C(Nc1cccc(-c2ccn[nH]2)c1)C1CCN(Cc2cccc3ccccc23)CC1 [Example 43]	− (“−” corresponds to >60% viral titer at 15 μM (highest concentration tested))

Compound	HCV Antiviral Activity
Cc1ccc(CN2CCC(C(=O)Nc3cccc(-c4cc5ccccc5[nH]4)c3)CC2)o1 [Example 45]	− (“−” corresponds to >60% viral titer at 15 μM (highest concentration tested))
CSCCCN1CCC(C(=O)Nc2cccc(-c3cc4ccccc4[nH]3)c2)CC1 [Example 46]	− (“−” corresponds to >60% viral titer at 15 μM (highest concentration tested))
O=C(Nc1ccc(-c2nc3ccccc3[nH]2)cc1)C1CCN(Cc2cc3ccccc3[nH]2)CC1 [Example 47]	− (“−” corresponds to >60% viral titer at 15 μM (highest concentration tested))
CCOc1ccc(CN2CCC(C(=O)Nc3ccccc3-c3cccc(OC)c3)CC2)cc1 [Example 48]	− (“−” corresponds to >60% viral titer at 15 μM (highest concentration tested))
O=C(Nc1cccc(-c2ccco2)c1)C1CCN(Cc2nc3ccc(F)cc3[nH]2)CC1 [Example 49]	− (“−” corresponds to >60% viral titer at 15 μM (highest concentration tested))
O=C(Nc1cccc(-c2cccc(Cl)c2)c1)C1CCN(Cc2cccc(O)c2)CC1 [Example 50]	− (“−” corresponds to >60% viral titer at 15 μM (highest concentration tested))
O=C(Nc1cccc(-c2cscn2)c1)C1CCN(C/C=C/c2ccc(F)cc2)CC1 [Example 52]	− (“−” corresponds to >60% viral titer at 15 μM (highest concentration tested))
O=C(Nc1cccc(-c2ccco2)c1)C1CCN(C(=O)CCc2ccco2)CC1 [Example 53]	− (“−” corresponds to >60% viral titer at 15 μM (highest concentration tested))
O=C(Nc1cccc(-c2ccco2)c1)C1CCN(C(=O)c2n[nH]c3c2CCC3)CC1 [Example 54]	− (“−” corresponds to >60% viral titer at 15 μM (highest concentration tested))
COc1ccc(/C=C/CN2CCC(C(=O)Nc3cccc(-c4ccco4)c3)CC2)cc1 [Example 55]	− (“−” corresponds to >60% viral titer at 15 μM (highest concentration tested))
O=C(Nc1cccc(-c2cccc(F)c2)c1)C1CCN(Cc2cccc3c2OCO3)CC1 [Example 56]	− (“−” corresponds to >60% viral titer at 15 μM (highest concentration tested))
COc1cccc(CN2CCC(C(=O)Nc3ccc(Oc4ccccc4F)cc3)CC2)c1O [Example 61]	++ (“++” corresponds to ≦60% viral titer at 5 μM)
COc1cccc(-c2ccccc2NC(=O)C2CCN(Cc3cccc(OC)c3O)CC2)c1 [Example 62]	++ (“++” corresponds to ≦60% viral titer at 5 μM)
COc1cccc(CN2CCC(C(=O)Nc3cccc(-c4cccc(Cl)c4)c3)CC2)c1O [Example 63]	++ (“++” corresponds to ≦60% viral titer at 5 μM)
COc1ccccc1/C=C/CN1CCC(C(=O)Nc2ccc(-n3nc(C)cc3C)cc2)CC1 [Example 66]	+ (“+” corresponds to ≦60% viral titer at 15 μM)
CCc1nc(CN2CCC(C(=O)Nc3cccc(-c4cccc(F)c4)c3)CC2)c(C)[nH]1 [Example 68]	+ (“+” corresponds to ≦60% viral titer at 15 μM)
COc1cccc(-c2cccc(NC(=O)C3CCN(CC=C(C)C)CC3)c2)c1 [Example 69]	++ (“++” corresponds to ≦60% viral titer at 5 μM)
COc1cccc(CN2CCC(C(=O)Nc3ccc(Oc4ccccc4F)cc3)CC2)c1 [Example 70]	+ (“+” corresponds to ≦60% viral titer at 15 μM)
COc1cccc(-c2ccccc2NC(=O)C2CCN(Cc3cccc4ccccc34)CC2)c1 [Example 71]	+ (“+” corresponds to ≦60% viral titer at 15 μM)
C=CCn1cc(CN2CCC(C(=O)Nc3cccc(-c4cccc(Cl)c4)c3)CC2)c(C)n1 [Example 72]	+ (“+” corresponds to ≦60% viral titer at 15 μM)
CCCn1ncc(CN2CCC(C(=O)Nc3ccc(Oc4ccccc4F)cc3)CC2)c1C [Example 73]	+ (“+” corresponds to ≦60% viral titer at 15 μM)
CCN1CCC(N2CCC(C(=O)Nc3ccc(Oc4ccccc4F)cc3)CC2)CC1 [Example 75]	+++ (“+++” corresponds to ≦30% viral titer at 5 μM)
Cc1nn(C(C)C)c(C)c1CN1CCC(C(=O)Nc2cccc(-c3cccc(F)c3)c2)CC1 [Example 76]	++ (“++” corresponds to ≦60% viral titer at 5 μM)
